Assays:
[1] = test system: subject one; assay: Female Sexual Functioning Index (FSFI) self-report before and after 4-week oral treatment; format: in vivo, human; details: for FSFI: confidence about becoming sexually aroused / FSFI: difficulty to become lubricated / FSFI: difficulty to maintain lubrication until completion / FSFI: difficulty to reach orgasm / FSFI: how often became lubricated / FSFI: how often felt sexual desire or interest / FSFI: how often felt sexually aroused / FSFI: how often maintained lubrication until completion / FSFI: how often reached orgasm / FSFI: how often satisfied with arousal / FSFI: level of sexual arousal / FSFI: level of sexual desire or interest / FSFI: satisfaction with ability to reach orgasm / FSFI: satisfaction with amount of emotional closeness with partner / FSFI: satisfaction with overall sexual life / FSFI: satisfaction with sexual relationship with partner: post-treatment FSFI
Source text: The “Female Sexual Functioning Index” or “FSFI” is a 19-item self-report inventory designed to assess female sexual function. It comprises six domains: desire (two items)], arousal (four items), lubrication (four items), orgasm, satisfaction, and pain (three items each).
The therapeutic efficacy of 3,4-diaminopyridine and its salts in the present methods can be determined by clinicians, for example, by using appropriate self-report inventories or questionnaires. In some embodiments, the therapeutic efficacy of 3,4-diaminopyridine, or a pharmaceutically acceptable thereof, in the present methods in female subjects can be assessed by the Female Sexual Functioning Index (FSFI) designed to measure sexual functioning in women. See, e.g., Rosen et al., Journal of Sex and Marital Therapy 26:191-208 (2000).
subject one self-reported their sexual functioning for the past 4 weeks using the FSFI questionnaire (“the pre-treatment FSFI”).
The subject then orally self-administered a total daily dose of 80 mg of 3,4-diaminopyridine phosphate salt for 4 weeks. The last dose of each day was self-administered at about 5:30 pm. The timing of their sexual activity, if any, was in the evening.
After the 4-week treatment period, the subject self-reported their sexual functioning for the past 4 weeks using the FSFI questionnaire (“the post-treatment FSFI”).
The subject then orally self-administered a total daily dose of 60 mg of 3,4-diaminopyridine phosphate salt for 4 weeks. The last dose of each day was self-administered at about 6 pm. The timing of their sexual activity, if any, was in the evening at 8-9 pm.
The subject then orally self-administered a total daily dose of 40 mg of 3,4-diaminopyridine phosphate salt for 4 weeks. The last dose of each day was self-administered at about 11 pm (5 mg). The timing of their sexual activity, if any, was in the morning, afternoon, and at night.

[2] = test system: subject two; assay: International Index of Erectile Function (IIEF) self-report before and after 4-week oral treatment; format: in vivo, human; parameters: key to IIEF question 1 score: able to get an erection during sexual activity / IIEF question 4 score: able to maintain erection after penetration / IIEF question 7 score: attempted intercourse satisfactory: each question scored 0-5; details: for IIEF question 1 score: able to get an erection during sexual activity / IIEF question 2 score: erections hard enough for penetration / IIEF question 3 score: able to penetrate partner when attempting intercourse / IIEF question 4 score: able to maintain erection after penetration / IIEF question 5 score: difficulty to maintain erection to completion of intercourse / IIEF question 6 score: attempts for sexual intercourse / IIEF question 7 score: attempted intercourse satisfactory / IIEF question 8 score: enjoyment of sexual intercourse / IIEF question 9 score: ejaculated with sexual stimulation or intercourse / IIEF question 10 score: feeling of orgasm or climax / IIEF question 11 score: how often felt sexual desire / IIEF question 12 score: level of sexual desire / IIEF question 13 score: satisfaction with overall sex life / IIEF question 14 score: satisfaction with sexual relationship with partner / IIEF question 15 score: confidence to get and keep an erection: post-treatment IIEF
Source text: The “International Index of Erectile Function” or “IIEF” is a self-report inventory consisting of 15 questions and 5 functional domains, which was developed for use in determining efficacy of treatment in controlled clinical trials. The IIEF has high sensitivity and specificity for detecting real treatment effects or the lack of treatment effects in patients with ED of broad-spectrum etiology. A score of 0-5 is awarded to each of the 15 questions that examine the 4 main domains of male sexual function: erectile function, orgasmic function, sexual desire, and intercourse satisfaction. Rosen, R., et al. (in Urology 49:822-830 (1997)) describe a study where the IIEF was tested in a series of 111 men with […] and 109 age-matched, normal volunteers. In some embodiments, the therapeutic efficacy of 3,4-diaminopyridine, or a pharmaceutically acceptable thereof, in the present methods in male subjects can be assessed by the Brief Male Sexual Function Inventory (BSFI) described by, for example, Mykletun et al., BJU International 97:316-323 (2005). In some embodiments, the Male Sexual Health Questionnaire (MSHQ) can be used to assess sexual function and satisfaction in older men with urogenital symptoms of lower urinary tract and sexual dysfunction. See, e.g., Rosen, et al., Urology 64(4):777-782 (2004). In some embodiments, the therapeutic efficacy of 3,4-diaminopyridine, or a pharmaceutically acceptable thereof, in the present methods in male subjects, can be assessed by the 15-question International Index of Erectile Function (IIEF) described by, for example, Rosen et al., Urology 49:822-830 (1997). […] The subject then orally self-administered a total daily dose of 60 mg (4 times 15 mg) of 3,4-diaminopyridine phosphate salt for 4 weeks. The last dose of each day was self-administered at about 8:30 pm. The timing of their sexual activity, if any, was at about 11:30 am (after the 11 am dose) or at about 4 pm. After the 4-week treatment period, the subject self-reported sexual functioning for the past 4 weeks using the IIEF questionnaire (“the post-treatment IIEF”). […] The subject then orally self-administered a total daily dose of 80 mg (4 times 20 mg) of 3,4-diaminopyridine phosphate salt for 4 weeks. The last dose of each day was self-administered at about 6:30 pm. The timing of their sexual activity, if any, was at about 7:30 pm. After the 4-week treatment period, the subject self-reported sexual functioning for the past 4 weeks using the IIEF questionnaire (“the post-treatment IIEF”).

[3] = Example 1 subject one, total daily dose 80 mg orally for 4 weeks
[4] = Example 2 subject one, total daily dose 60 mg orally for 4 weeks
[5] = Example 3 subject one, total daily dose 40 mg orally for 4 weeks
[6] = four week course of an effective daily dose, general statement
[7] = Example 4, subject, 60 mg daily (4 times 15 mg) orally for 4 weeks
[8] = Example 4, subject, 60 mg daily orally for 4 weeks
[9] = Example 4, subject, 60 mg daily orally for 4 weeks, maximum score 10, pre-treatment score 4
[10] = Example 5, subject, 80 mg daily (4 times 20 mg) orally for 4 weeks

Nc1ccncc1N.O=P(O)(O)O [3,4-diaminopyridine phosphate salt]
confidence while being treated (subject report) [1, 3]: more confident
emotional experience with partner (subject report) [1, 3]: better
time to reach orgasm (subject report) [1, 3]: shorter
FSFI: confidence about becoming sexually aroused [1, 3]: very high
FSFI: difficulty to become lubricated [1, 3]: slightly difficult
FSFI: difficulty to maintain lubrication until completion [1, 3]: slightly difficult
FSFI: difficulty to reach orgasm [1, 3]: not difficult
FSFI: how often became lubricated [1, 3]: most times
FSFI: how often felt sexual desire or interest [1, 3]: almost always or always
FSFI: how often felt sexually aroused [1, 3]: almost always or always
FSFI: how often maintained lubrication until completion [1, 3]: most times
FSFI: how often reached orgasm [1, 3]: most times
FSFI: how often satisfied with arousal [1, 3]: most times
FSFI: level of sexual arousal [1, 3]: high
FSFI: level of sexual desire or interest [1, 3]: moderate
FSFI: satisfaction with ability to reach orgasm [1, 3]: very satisfied
FSFI: satisfaction with amount of emotional closeness with partner [1, 3]: very satisfied
FSFI: satisfaction with overall sexual life [1, 3]: very satisfied
FSFI: satisfaction with sexual relationship with partner [1, 3]: very satisfied
confidence while being treated (subject report) [1, 4]: more confident
emotional experience with partner (subject report) [1, 4]: better
time to reach orgasm (subject report) [1, 4]: shorter
FSFI: confidence about becoming sexually aroused [1, 4]: very high
FSFI: difficulty to become lubricated [1, 4]: not difficult
FSFI: difficulty to maintain lubrication until completion [1, 4]: not difficult
FSFI: difficulty to reach orgasm [1, 4]: not difficult
FSFI: how often became lubricated [1, 4]: almost always or always
FSFI: how often felt sexual desire or interest [1, 4]: almost always or always
FSFI: how often felt sexually aroused [1, 4]: most times
FSFI: how often maintained lubrication until completion [1, 4]: almost never or never
FSFI: how often reached orgasm [1, 4]: almost always or always
FSFI: how often satisfied with arousal [1, 4]: almost always or always
FSFI: level of sexual arousal [1, 4]: very high
FSFI: level of sexual desire or interest [1, 4]: very high
FSFI: satisfaction with ability to reach orgasm [1, 4]: very satisfied
FSFI: satisfaction with amount of emotional closeness with partner [1, 4]: very satisfied
FSFI: satisfaction with overall sexual life [1, 4]: very satisfied
FSFI: satisfaction with sexual relationship with partner [1, 4]: very satisfied
orgasms experienced after taking the drug, not experienced before (subject report) [1, 5]: multiple orgasms
FSFI: confidence about becoming sexually aroused [1, 5]: very high
FSFI: difficulty to become lubricated [1, 5]: not difficult
FSFI: difficulty to maintain lubrication until completion [1, 5]: not difficult
FSFI: difficulty to reach orgasm [1, 5]: not difficult
FSFI: how often became lubricated [1, 5]: almost always or always
FSFI: how often felt sexual desire or interest [1, 5]: almost always or always
FSFI: how often felt sexually aroused [1, 5]: almost always or always
FSFI: how often maintained lubrication until completion [1, 5]: almost always or always
FSFI: how often reached orgasm [1, 5]: almost always or always
FSFI: how often satisfied with arousal [1, 5]: almost always or always
FSFI: level of sexual arousal [1, 5]: very high
FSFI: level of sexual desire or interest [1, 5]: very high
FSFI: satisfaction with ability to reach orgasm [1, 5]: very satisfied
FSFI: satisfaction with amount of emotional closeness with partner [1, 5]: very satisfied
FSFI: satisfaction with overall sexual life [1, 5]: very satisfied
FSFI: satisfaction with sexual relationship with partner [1, 5]: very satisfied
sexual functioning of subjects suffering from sexual dysfunction ([1]; daily oral administration, general statement): overall improvement
orgasmic ability (FSFI before and after) [1, 6]: increased orgasmic ability
sexual desire (FSFI before and after) [1, 6]: increased sexual desire
sexual satisfaction (FSFI before and after) [1, 6]: increased sexual satisfaction
IIEF question 1 score: able to get an erection during sexual activity [2, 7]: 4
IIEF question 2 score: erections hard enough for penetration [2, 7]: 4
IIEF question 3 score: able to penetrate partner when attempting intercourse [2, 7]: 4
IIEF question 4 score: able to maintain erection after penetration [2, 7]: 3
IIEF question 5 score: difficulty to maintain erection to completion of intercourse [2, 7]: 4
IIEF question 6 score: attempts for sexual intercourse [2, 7]: 3
IIEF question 7 score: attempted intercourse satisfactory [2, 7]: 4
IIEF question 8 score: enjoyment of sexual intercourse [2, 7]: 4
IIEF question 9 score: ejaculated with sexual stimulation or intercourse [2, 7]: 4
IIEF question 10 score: feeling of orgasm or climax [2, 7]: 4
IIEF question 11 score: how often felt sexual desire [2, 7]: 5
IIEF question 12 score: level of sexual desire [2, 7]: 4
IIEF question 13 score: satisfaction with overall sex life [2, 7]: 4
IIEF question 14 score: satisfaction with sexual relationship with partner [2, 7]: 4
IIEF question 15 score: confidence to get and keep an erection [2, 7]: 4
arousal (subject report) [2, 8]: more aroused
overall sexual performance (subject report) [2, 8]: better
effect on all the 5 IIEF domains of male sexual function ([2]; Example 4, subject, 60 mg daily orally for 4 weeks, Table 3): improved
Post-Treatment Score, IIEF domain B. Orgasmic Function (questions 9 and 10) [2, 9]: 8
Post-Treatment Score, IIEF domain E. Overall Satisfaction (questions 13 and 14) [2, 9]: 8
Post-Treatment Score, IIEF domain C. Sexual Desire (questions 11 and 12) ([2]; Example 4, subject, 60 mg daily orally for 4 weeks, maximum score 10, pre-treatment score 5): 9
Post-Treatment Score, IIEF domain D. Intercourse Satisfaction (questions 6-8) ([2]; Example 4, subject, 60 mg daily orally for 4 weeks, maximum score 15, pre-treatment score 5): 11
Post-Treatment Score, IIEF domain A. Erectile Function (questions 1-5 and 15) ([2]; Example 4, subject, 60 mg daily orally for 4 weeks, maximum score 30, pre-treatment score 8): 23
IIEF question 1 score: able to get an erection during sexual activity [2, 10]: 4
IIEF question 2 score: erections hard enough for penetration [2, 10]: 4
IIEF question 3 score: able to penetrate partner when attempting intercourse [2, 10]: 4
IIEF question 4 score: able to maintain erection after penetration [2, 10]: 3
IIEF question 5 score: difficulty to maintain erection to completion of intercourse [2, 10]: 4
IIEF question 6 score: attempts for sexual intercourse [2, 10]: 3
IIEF question 7 score: attempted intercourse satisfactory [2, 10]: 4
IIEF question 8 score: enjoyment of sexual intercourse [2, 10]: 4
IIEF question 9 score: ejaculated with sexual stimulation or intercourse [2, 10]: 4
IIEF question 10 score: feeling of orgasm or climax [2, 10]: 4
IIEF question 11 score: how often felt sexual desire [2, 10]: 5
IIEF question 12 score: level of sexual desire [2, 10]: 4
IIEF question 13 score: satisfaction with overall sex life [2, 10]: 4
IIEF question 14 score: satisfaction with sexual relationship with partner [2, 10]: 4
IIEF question 15 score: confidence to get and keep an erection [2, 10]: 4
overall sexual performance (subject report) ([2]; Example 5, subject, 80 mg daily orally for 4 weeks): better
